# Columns and labels:
# [1] = tested on: B16; assay: Cytotoxicity against mouse B16 cells after 48 hrs by MTT assay; type: functional, cell-based; conditions: B16, 48 h
# [2] = tested on: HGC-27; assay: Cytotoxicity against human HGC27 cells after 48 hrs by MTT assay; type: functional, cell-based; conditions: HGC-27, 48 h
# [3] = tested on: HEK293; assay: Cytotoxicity against HEK293 cells after 48 hrs by MTT assay; type: cell-based; conditions: Homo sapiens, HEK293, 48 h
# [4] = tested on: HEK293; assay: Cell cycle arrest in HEK293 cells assessed as accumulation at G1 phase at 0.5 […] after 24 hrs by flow cytometry; type: functional, Homo sapiens
# [5] = tested on: HEK293; assay: Cell cycle arrest in HEK293 cells assessed as accumulation at G2/M phase at 10 uM after 24 hrs by flow cytometry; type: functional, Homo sapiens
# [6] = tested on: HEK293; assay: Cell cycle arrest in HEK293 cells assessed as accumulation at S phase at 10 uM after 24 hrs by flow cytometry; type: functional, Homo sapiens
# [7] = tested on: HEK293; assay: Cell cycle arrest in HEK293 cells assessed as accumulation at G1 phase at 5 nM after 24 hrs by flow cytometry; type: functional, Homo sapiens
# [8] = tested on: HEK293; assay: Cell cycle arrest in HEK293 cells assessed as accumulation at S phase at 2.5 uM after 24 hrs by flow cytometry; type: functional, Homo sapiens
# [9] = tested on: HEK293; assay: Cell cycle arrest in HEK293 cells assessed as accumulation at G1 phase at 5 uM after 24 hrs by flow cytometry; type: functional, Homo sapiens
# [10] = tested on: HEK293; assay: Cell cycle arrest in HEK293 cells assessed as accumulation at G1 phase at 10 uM after 24 hrs by flow cytometry; type: functional, Homo sapiens
# [11] = tested on: HEK293; assay: Cell cycle arrest in HEK293 cells assessed as accumulation at G2/M phase at 5 nM after 24 hrs by flow cytometry; type: functional, Homo sapiens
# [12] = tested on: HEK293; assay: Cell cycle arrest in HEK293 cells assessed as accumulation at S phase at 5 nM after 24 hrs by flow cytometry; type: functional, Homo sapiens
# [13] = tested on: HEK293; assay: Cell cycle arrest in HEK293 cells assessed as accumulation at G2/M phase at 2.5 uM after 24 hrs by flow cytometry; type: functional, Homo sapiens
# [14] = tested on: HEK293; assay: Cell cycle arrest in HEK293 cells assessed as accumulation at G1 phase at 2.5 uM after 24 hrs by flow cytometry; type: functional, Homo sapiens
# [15] = tested on: HEK293; assay: Cell cycle arrest in HEK293 cells assessed as accumulation at S phase at 0.5 uM after 24 hrs by flow cytometry; type: functional, Homo sapiens
# [16] = tested on: HEK293; assay: Cell cycle arrest in HEK293 cells assessed as accumulation at G2/M phase at 5 uM after 24 hrs by flow cytometry; type: functional, Homo sapiens
# [17] = tested on: HEK293; assay: Cell cycle arrest in HEK293 cells assessed as accumulation at G2/M phase at 0.5 uM after 24 hrs by flow cytometry; type: functional, Homo sapiens
# [18] = tested on: HEK293; assay: Cell cycle arrest in HEK293 cells assessed as accumulation at S phase at 5 uM after 24 hrs by flow cytometry; type: functional, Homo sapiens
Structure (SMILES),IC50 [1] [µM],IC50 [2] [µM],IC50 [3] [µM],further results
C[C@H](CO)c1cc2c(c(O)c1O[C@@H]1O[C@H](CO)[C@@H](O)[C@H](O)[C@H]1O)[C@@]1(C)CCC[C@](C)(CO[C@@H]3O[C@H](CO)[C@@H](O)[C@H](O)[C@H]3O)[C@@H]1CC2,> 10,> 10,> 10,–
C[C@H](CO)c1cc2c(c(O)c1O[C@@H]1O[C@H](CO)[C@@H](O)[C@H](O)[C@H]1O)[C@@]1(C)CCC[C@](C)(C(=O)O[C@@H]3O[C@H](CO)[C@@H](O)[C@H](O)[C@H]3O)[C@@H]1CC2,> 10,> 10,> 10,–
CC1=C(C(=O)O)[C@@H]2CC(=O)c3cc(CC(C)O)c(O[C@@H]4O[C@H](CO)[C@@H](O)[C@H](O)[C@H]4O)c(O)c3[C@@]2(C)CC1 (some centres undefined),> 10,> 10,> 10,–
CC1=C(CO)C2=CC(=O)c3c(c(O)c4oc(C)cc4c3O)[C@@]2(C)CC1=O,> 10,> 10,> 10,–
CC1=C(C)C2=CC(=O)c3c(O)c4c(c(O)c3[C@@]2(C)CC1)OC(C)C4 (some centres undefined),6.4,5.3,1.2,Activity [4]: 45.43%; Activity [5]: 34.88%; Activity [6]: 42.62%; Activity [7]: 50.14%; Activity [8]: 40.45%; Activity [9]: 29.5%; Activity [10]: 22.5%; Activity [11]: 16.14%; Activity [12]: 33.72%; Activity [13]: 16.12%; Activity [14]: 43.44%; Activity [15]: 31.01%; Activity [16]: 23.92%; Activity [17]: 23.57%; Activity [18]: 46.58%
C[C@H](CO)c1cc2c(c(O)c1O[C@@H]1O[C@H](CO)[C@@H](O)[C@H](O)[C@H]1O)[C@@]1(C)CC[C@H](O[C@@H]3O[C@H](CO)[C@@H](O)[C@H](O)[C@H]3O)C(C)(C)[C@@H]1CC2,> 10,> 10,> 10,–
CC1=C(C)C2=CC(=O)c3c(c(O)c4oc(C)cc4c3O)[C@@]2(C)CC1=O,> 10,> 10,> 10,–
C[C@H](CO)c1cc2c(c(O)c1O[C@@H]1O[C@H](CO)[C@@H](O)[C@H](O)[C@H]1O)[C@@]1(C)CC[C@H](O)C(C)(C)[C@@H]1CC2,> 10,> 10,> 10,–
